Article PMC8401933 (Molecules, 2021)
Entries after “also recorded” stand apart in the source; their conditions may differ.

What was measured:
GRK2 = molecular target: T1, GRK2 (Homo sapiens, UniProt P25098); experiment: KINOMEscan binding; details: read-out: Percent Control
T1 construct: purchased Eurofins DiscoverX KINOMEscan

PHKG1 = molecular target: T2, PHKG1 (Homo sapiens, UniProt Q16816); experiment: KINOMEscan binding; details: read-out: Percent Control
T2 construct: purchased Eurofins DiscoverX KINOMEscan

MKK7 = molecular target: T3, MKK7 (Homo sapiens, UniProt O14733); experiment: KINOMEscan binding; details: read-out: Percent Control
T3 construct: purchased Eurofins DiscoverX KINOMEscan

YANK3 = molecular target: T4, YANK3 (Homo sapiens, UniProt Q86UX6); experiment: KINOMEscan binding; details: read-out: Percent Control
T4 construct: purchased Eurofins DiscoverX KINOMEscan

[1] = molecular target: T5, RSK4(Kin.Dom.2-C-terminal) (Homo sapiens, UniProt Q9UK32); experiment: KINOMEscan binding; details: read-out: Percent Control
T5 construct: RSK4(Kin.Dom.2-C-terminal); purchased Eurofins DiscoverX KINOMEscan

KIT(D816H) = molecular target: T6, KIT(D816H) (Homo sapiens, UniProt P10721, D816H); experiment: KINOMEscan binding; details: read-out: Percent Control
T6 construct: purchased Eurofins DiscoverX KINOMEscan

[2] = molecular target: T7, ABL1(H396P)-nonphosphorylated (Homo sapiens, UniProt P00519, H396P); experiment: KINOMEscan binding; details: read-out: Percent Control
T7 construct: purchased Eurofins DiscoverX KINOMEscan

DCAMKL2 = molecular target: T8, DCAMKL2 (Homo sapiens, UniProt Q8N568); experiment: KINOMEscan binding; details: read-out: Percent Control
T8 construct: purchased Eurofins DiscoverX KINOMEscan

TLK1 = molecular target: T9, TLK1 (Homo sapiens, UniProt Q9UKI8); experiment: KINOMEscan binding; details: read-out: Percent Control
T9 construct: purchased Eurofins DiscoverX KINOMEscan

CSF1R = molecular target: T10, CSF1R (Homo sapiens, UniProt P07333); experiment: KINOMEscan binding; details: read-out: Percent Control
T10 construct: purchased Eurofins DiscoverX KINOMEscan

MST4 = molecular target: T11, MST4 (Homo sapiens, UniProt Q9P289); experiment: KINOMEscan binding; details: read-out: Percent Control
T11 construct: purchased Eurofins DiscoverX KINOMEscan

3T3-L1 cells = experiment: Adipocyte differentiation, Oil Red O staining; type: cell-based; details: for quantity of lipid droplets (ORO staining): CX-4945 5 μM, KD025 3 μM
Procedure: The preadipocyte 3T3-L1 cell line was kindly provided by Dr. Hyun-Sung Park (University of Seoul) and cultured in Dulbecco’s modified Eagle’s medium (DMEM, Sigma-Aldrich) supplied with 10% heat-inactivated newborn calf serum (Invitrogen, CA, USA), 100 units/mL penicillin, and 100 µg/mL streptomycin (Cellgro, VA, USA). The cells were maintained in an incubator at 37 °C and 5% CO2. To initiate differentiation, the cells were incubated for additional days after 100% confluence and then further incubated in a medium containing fetal bovine serum (FBS) and a differentiation cocktail (DMI, 1 μM dexamethasone, 0.5 mM 3-isobutyl-1-methylxanthine, and 5 μg/mL insulin) as previously described. In brief, at day 3, the culture medium was replaced with DMEM/10%FBS containing 5 µg/mL insulin. Then, growth medium was changed every 2 days.
Lipid droplets of cells were stained using ORO (Sigma-Aldrich, MA, USA). In brief, the cells were washed with phosphate buffered saline and incubated with 10% formalin for 5 min. The cells were then fixed with the same volume of fresh formalin for at least 1 h. Subsequently, the cells were washed with 60% isopropanol, air dried completely, and then stained with ORO working solution (1% ORO/isopropanol: distilled water = 3:2). The stained cells were washed with water four times. Cell images were taken by a microscope (Nikon Eclipse TS100-F, Japan). Then, 100% isopropanol was added and incubated for 10 min to quantify the intensity of ORO. The quantity of extracted dye was obtained by obtaining absorbance at 540 nm in the Synergy H1 hybrid reader (BioTek, VT, USA).

LRRK2 = molecular target: T12, LRRK2 (Homo sapiens, UniProt Q5S007); experiment: KINOMEscan binding; details: read-out: Percent Control
T12 construct: purchased Eurofins DiscoverX KINOMEscan

INSR = molecular target: T13, INSR (Homo sapiens, UniProt P06213); experiment: KINOMEscan binding; details: read-out: Percent Control
T13 construct: purchased Eurofins DiscoverX KINOMEscan

PIK3C2G = molecular target: T14, PIK3C2G (Homo sapiens, UniProt O75747); experiment: KINOMEscan binding; details: read-out: Percent Control
T14 construct: purchased Eurofins DiscoverX KINOMEscan

SIK2 = molecular target: T15, SIK2 (Homo sapiens, UniProt Q9H0K1); experiment: KINOMEscan binding; details: read-out: Percent Control
T15 construct: purchased Eurofins DiscoverX KINOMEscan

SRPK1 = molecular target: T16, SRPK1 (Homo sapiens, UniProt Q96SB4); experiment: KINOMEscan binding; details: read-out: Percent Control
T16 construct: purchased Eurofins DiscoverX KINOMEscan

BIKE = molecular target: T17, BIKE (Homo sapiens, UniProt Q9NSY1); experiment: KINOMEscan binding; details: read-out: Percent Control
T17 construct: purchased Eurofins DiscoverX KINOMEscan

AKT3 = molecular target: T18, AKT3 (Homo sapiens, UniProt Q9Y243); experiment: KINOMEscan binding; details: read-out: Percent Control
T18 construct: purchased Eurofins DiscoverX KINOMEscan

CDK4-cyclinD1 = molecular target: T19, CDK4-cyclinD1 (Homo sapiens, UniProt P11802); experiment: KINOMEscan binding; details: read-out: Percent Control
T19 construct: purchased Eurofins DiscoverX KINOMEscan

PIK3CA(C420R) = molecular target: T20, PIK3CA(C420R) (Homo sapiens, UniProt P42336, C420R); experiment: KINOMEscan binding; details: read-out: Percent Control
T20 construct: purchased Eurofins DiscoverX KINOMEscan

PAK7 = molecular target: T21, PAK7 (Homo sapiens, UniProt Q9P286); experiment: KINOMEscan binding; details: read-out: Percent Control
T21 construct: purchased Eurofins DiscoverX KINOMEscan

EPHA6 = molecular target: T22, EPHA6 (Homo sapiens, UniProt Q9UF33); experiment: KINOMEscan binding; details: read-out: Percent Control
T22 construct: purchased Eurofins DiscoverX KINOMEscan

ACVR2B = molecular target: T23, ACVR2B (Homo sapiens, UniProt Q13705); experiment: KINOMEscan binding; details: read-out: Percent Control
T23 construct: purchased Eurofins DiscoverX KINOMEscan

FLT3(N841I) = molecular target: T24, FLT3(N841I) (Homo sapiens, UniProt P36888, N841I); experiment: KINOMEscan binding; details: read-out: Percent Control
T24 construct: purchased Eurofins DiscoverX KINOMEscan

GRK3 = molecular target: T25, GRK3 (Homo sapiens, UniProt P35626); experiment: KINOMEscan binding; details: read-out: Percent Control
T25 construct: purchased Eurofins DiscoverX KINOMEscan

EPHB2 = molecular target: T26, EPHB2 (Homo sapiens, UniProt P29323); experiment: KINOMEscan binding; details: read-out: Percent Control
T26 construct: purchased Eurofins DiscoverX KINOMEscan

CDKL5 = molecular target: T27, CDKL5 (Homo sapiens, UniProt O76039); experiment: KINOMEscan binding; details: read-out: Percent Control
T27 construct: purchased Eurofins DiscoverX KINOMEscan

BRAF(V600E) = molecular target: T28, BRAF(V600E) (Homo sapiens, UniProt P15056, V600E); experiment: KINOMEscan binding; details: read-out: Percent Control
T28 construct: purchased Eurofins DiscoverX KINOMEscan

PIK3CA(E545K) = molecular target: T29, PIK3CA(E545K) (Homo sapiens, UniProt P42336, E545K); experiment: KINOMEscan binding; details: read-out: Percent Control
T29 construct: purchased Eurofins DiscoverX KINOMEscan

FLT3(D835H) = molecular target: T30, FLT3(D835H) (Homo sapiens, UniProt P36888, D835H); experiment: KINOMEscan binding; details: read-out: Percent Control
T30 construct: purchased Eurofins DiscoverX KINOMEscan

PRKG2 = molecular target: T31, PRKG2 (Homo sapiens, UniProt Q13237); experiment: KINOMEscan binding; details: read-out: Percent Control
T31 construct: purchased Eurofins DiscoverX KINOMEscan

DYRK2 = molecular target: T32, DYRK2 (Homo sapiens, UniProt Q92630); experiment: KINOMEscan binding; details: read-out: Percent Control
T32 construct: purchased Eurofins DiscoverX KINOMEscan

T22 sequence (Q9UF33 23-1036): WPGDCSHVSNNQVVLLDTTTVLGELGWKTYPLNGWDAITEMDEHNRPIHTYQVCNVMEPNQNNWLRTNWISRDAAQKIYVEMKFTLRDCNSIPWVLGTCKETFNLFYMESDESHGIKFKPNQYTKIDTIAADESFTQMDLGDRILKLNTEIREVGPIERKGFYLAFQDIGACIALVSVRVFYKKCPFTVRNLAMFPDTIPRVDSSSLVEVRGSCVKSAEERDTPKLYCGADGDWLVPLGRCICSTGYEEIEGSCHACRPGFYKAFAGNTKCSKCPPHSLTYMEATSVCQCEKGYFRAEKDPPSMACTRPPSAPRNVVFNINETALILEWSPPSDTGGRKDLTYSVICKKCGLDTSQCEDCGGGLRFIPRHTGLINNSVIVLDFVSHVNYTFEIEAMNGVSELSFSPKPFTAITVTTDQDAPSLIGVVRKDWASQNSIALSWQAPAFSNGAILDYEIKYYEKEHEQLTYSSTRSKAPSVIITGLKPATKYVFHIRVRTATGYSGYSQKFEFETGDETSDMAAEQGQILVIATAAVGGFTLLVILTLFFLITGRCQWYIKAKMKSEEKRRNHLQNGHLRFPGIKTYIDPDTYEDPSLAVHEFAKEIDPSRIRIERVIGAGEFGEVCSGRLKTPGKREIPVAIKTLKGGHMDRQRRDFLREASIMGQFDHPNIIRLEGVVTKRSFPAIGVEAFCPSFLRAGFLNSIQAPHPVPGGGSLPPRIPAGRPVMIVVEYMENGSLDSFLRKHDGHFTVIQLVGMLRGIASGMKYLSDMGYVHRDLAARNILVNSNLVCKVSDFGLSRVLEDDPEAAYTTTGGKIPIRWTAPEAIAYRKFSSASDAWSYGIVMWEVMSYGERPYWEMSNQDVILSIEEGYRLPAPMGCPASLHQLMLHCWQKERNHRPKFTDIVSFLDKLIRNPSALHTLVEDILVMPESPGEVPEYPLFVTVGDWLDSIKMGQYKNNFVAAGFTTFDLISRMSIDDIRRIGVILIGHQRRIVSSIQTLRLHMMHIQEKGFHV
T29 sequence (P42336 whole entry E545K): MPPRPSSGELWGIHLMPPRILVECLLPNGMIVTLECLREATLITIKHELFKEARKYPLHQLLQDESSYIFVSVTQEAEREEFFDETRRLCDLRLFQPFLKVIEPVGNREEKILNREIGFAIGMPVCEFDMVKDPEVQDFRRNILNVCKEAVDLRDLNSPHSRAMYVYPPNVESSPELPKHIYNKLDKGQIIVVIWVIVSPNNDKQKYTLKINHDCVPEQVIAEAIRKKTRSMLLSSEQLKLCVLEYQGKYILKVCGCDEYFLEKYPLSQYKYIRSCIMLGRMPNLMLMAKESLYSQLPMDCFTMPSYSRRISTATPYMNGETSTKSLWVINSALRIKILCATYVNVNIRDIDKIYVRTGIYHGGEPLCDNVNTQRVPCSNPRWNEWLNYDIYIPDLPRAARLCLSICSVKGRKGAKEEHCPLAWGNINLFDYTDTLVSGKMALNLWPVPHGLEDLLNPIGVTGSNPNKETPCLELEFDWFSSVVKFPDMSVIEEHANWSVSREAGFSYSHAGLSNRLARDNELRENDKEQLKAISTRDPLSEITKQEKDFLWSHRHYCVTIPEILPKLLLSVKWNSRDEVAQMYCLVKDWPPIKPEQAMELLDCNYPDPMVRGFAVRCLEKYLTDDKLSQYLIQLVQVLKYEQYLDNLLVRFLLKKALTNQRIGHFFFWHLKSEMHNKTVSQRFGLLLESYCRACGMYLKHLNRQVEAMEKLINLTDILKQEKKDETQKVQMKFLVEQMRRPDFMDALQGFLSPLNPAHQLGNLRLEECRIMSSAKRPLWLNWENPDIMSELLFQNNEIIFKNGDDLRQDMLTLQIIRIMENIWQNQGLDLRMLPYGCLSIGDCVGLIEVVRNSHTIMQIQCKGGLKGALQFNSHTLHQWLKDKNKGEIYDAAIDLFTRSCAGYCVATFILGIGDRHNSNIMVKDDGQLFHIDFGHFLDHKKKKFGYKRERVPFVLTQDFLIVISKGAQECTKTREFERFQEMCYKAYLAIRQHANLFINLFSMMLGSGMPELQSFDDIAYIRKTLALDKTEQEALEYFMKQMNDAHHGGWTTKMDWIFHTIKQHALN
T14 sequence (O75747 whole entry): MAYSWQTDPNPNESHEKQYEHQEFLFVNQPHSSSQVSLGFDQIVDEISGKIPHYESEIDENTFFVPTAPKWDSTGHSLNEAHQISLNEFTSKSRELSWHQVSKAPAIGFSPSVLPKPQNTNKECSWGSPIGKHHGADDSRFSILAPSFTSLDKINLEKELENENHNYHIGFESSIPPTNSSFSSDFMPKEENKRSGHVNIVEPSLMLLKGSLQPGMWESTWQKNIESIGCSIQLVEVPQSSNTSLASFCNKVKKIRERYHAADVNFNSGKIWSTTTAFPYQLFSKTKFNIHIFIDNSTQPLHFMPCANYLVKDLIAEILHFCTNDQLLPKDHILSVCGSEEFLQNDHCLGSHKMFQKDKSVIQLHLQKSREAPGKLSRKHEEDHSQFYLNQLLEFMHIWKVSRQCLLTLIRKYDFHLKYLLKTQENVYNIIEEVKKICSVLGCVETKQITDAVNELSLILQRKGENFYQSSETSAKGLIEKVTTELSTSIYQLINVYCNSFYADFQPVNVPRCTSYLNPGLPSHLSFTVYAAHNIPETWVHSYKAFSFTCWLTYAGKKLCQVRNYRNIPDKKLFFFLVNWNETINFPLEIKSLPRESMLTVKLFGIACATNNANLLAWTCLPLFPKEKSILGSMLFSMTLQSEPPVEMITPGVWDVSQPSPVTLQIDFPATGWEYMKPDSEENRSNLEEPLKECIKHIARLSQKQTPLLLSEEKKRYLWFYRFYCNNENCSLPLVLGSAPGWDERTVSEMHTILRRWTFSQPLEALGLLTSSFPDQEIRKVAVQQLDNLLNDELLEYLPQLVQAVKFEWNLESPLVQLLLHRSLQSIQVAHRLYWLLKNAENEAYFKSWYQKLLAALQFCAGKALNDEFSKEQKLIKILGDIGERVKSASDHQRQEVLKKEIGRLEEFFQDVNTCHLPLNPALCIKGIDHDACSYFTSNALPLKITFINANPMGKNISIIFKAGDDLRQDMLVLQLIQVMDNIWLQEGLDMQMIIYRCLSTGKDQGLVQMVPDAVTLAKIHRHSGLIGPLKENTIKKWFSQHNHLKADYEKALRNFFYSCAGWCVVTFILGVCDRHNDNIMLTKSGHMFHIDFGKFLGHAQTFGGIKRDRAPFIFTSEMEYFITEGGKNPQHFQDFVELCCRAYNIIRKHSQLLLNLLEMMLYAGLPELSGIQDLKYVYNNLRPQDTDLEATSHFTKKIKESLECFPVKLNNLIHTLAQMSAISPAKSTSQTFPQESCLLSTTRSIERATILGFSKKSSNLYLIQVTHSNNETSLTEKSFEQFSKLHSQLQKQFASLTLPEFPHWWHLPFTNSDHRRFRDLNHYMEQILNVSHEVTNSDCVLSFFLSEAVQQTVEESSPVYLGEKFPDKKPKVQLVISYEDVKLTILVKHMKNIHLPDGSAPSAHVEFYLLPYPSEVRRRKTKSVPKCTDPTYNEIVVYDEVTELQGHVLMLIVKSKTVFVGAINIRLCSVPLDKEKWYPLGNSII
T3 sequence (O14733 whole entry): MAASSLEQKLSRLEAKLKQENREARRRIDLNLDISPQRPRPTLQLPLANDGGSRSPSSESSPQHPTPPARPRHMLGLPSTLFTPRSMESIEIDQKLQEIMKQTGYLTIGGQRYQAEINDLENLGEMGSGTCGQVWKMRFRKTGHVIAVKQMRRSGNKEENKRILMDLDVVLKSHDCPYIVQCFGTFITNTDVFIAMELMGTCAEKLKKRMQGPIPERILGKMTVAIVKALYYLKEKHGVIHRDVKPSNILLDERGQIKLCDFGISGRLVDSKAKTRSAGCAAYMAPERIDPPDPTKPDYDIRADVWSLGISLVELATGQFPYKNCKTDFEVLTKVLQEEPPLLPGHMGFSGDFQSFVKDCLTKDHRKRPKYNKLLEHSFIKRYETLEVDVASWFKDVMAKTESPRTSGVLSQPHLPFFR
T6 sequence (P10721 26-976 D816H): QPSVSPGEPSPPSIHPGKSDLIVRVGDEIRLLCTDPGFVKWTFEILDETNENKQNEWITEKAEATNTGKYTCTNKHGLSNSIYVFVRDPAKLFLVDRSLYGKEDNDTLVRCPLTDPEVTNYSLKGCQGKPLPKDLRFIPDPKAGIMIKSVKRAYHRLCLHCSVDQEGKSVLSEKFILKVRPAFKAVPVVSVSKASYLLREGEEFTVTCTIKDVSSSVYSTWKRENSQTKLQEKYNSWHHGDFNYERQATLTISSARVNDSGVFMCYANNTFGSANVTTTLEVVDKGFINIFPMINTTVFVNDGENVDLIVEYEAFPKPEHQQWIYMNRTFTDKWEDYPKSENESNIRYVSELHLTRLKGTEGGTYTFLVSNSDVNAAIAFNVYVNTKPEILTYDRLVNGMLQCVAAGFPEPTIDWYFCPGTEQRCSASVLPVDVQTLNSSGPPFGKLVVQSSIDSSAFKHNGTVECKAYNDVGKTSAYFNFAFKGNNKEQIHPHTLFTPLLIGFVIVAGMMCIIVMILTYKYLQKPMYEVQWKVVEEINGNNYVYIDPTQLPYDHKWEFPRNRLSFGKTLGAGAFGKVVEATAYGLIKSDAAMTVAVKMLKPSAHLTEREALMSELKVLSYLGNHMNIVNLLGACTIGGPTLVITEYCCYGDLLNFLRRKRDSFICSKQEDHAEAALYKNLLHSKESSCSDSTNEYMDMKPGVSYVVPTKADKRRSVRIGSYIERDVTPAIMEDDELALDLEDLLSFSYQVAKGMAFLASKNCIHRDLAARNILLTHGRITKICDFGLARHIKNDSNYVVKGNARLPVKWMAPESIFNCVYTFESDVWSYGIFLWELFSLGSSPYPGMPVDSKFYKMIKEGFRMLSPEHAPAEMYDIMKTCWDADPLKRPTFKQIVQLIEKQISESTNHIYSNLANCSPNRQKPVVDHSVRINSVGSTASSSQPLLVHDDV
T20 sequence (P42336 whole entry C420R): as the sequence (P42336 whole entry E545K) above, with C420R, K545E counted along it

With `CC(C)NC(=O)COc1cccc(-c2nc(Nc3ccc4[nH]ncc4c3)c3ccccc3n2)c1` [KD025, 2-(3-(4-((1H-indazol-5-yl)amino)quinazolin-2-yl)phenoxy)-N-isopropylacetamide] the remaining binding at 10 µM (GRK2) was 89%, the remaining binding at 10 µM (PHKG1) was 87% and the remaining binding at 10 µM (MKK7) was 73%. It also gave a remaining binding at 10 µM (YANK3) of 76%, a remaining binding at 10 µM [1] of 88% and a remaining binding at 10 µM (KIT(D816H)) of 81%. It also gave a remaining binding at 10 µM [2] of 90%, a remaining binding at 10 µM (DCAMKL2) of 79% and a remaining binding at 10 µM (TLK1) of 100%. For the same compound, the remaining binding at 10 µM (CSF1R) was 99%, the remaining binding at 10 µM (MST4) was 88% and the “lipid accumulation / adipocyte differentiation (ORO staining)” value (3T3-L1 cells; 3T3-L1, treated during differentiation, stained at day 8) was “suppressed the generation of lipid droplets; also recorded: reduces fat accumulation”. For the same compound, the “quantity of lipid droplets (ORO staining)” value (3T3-L1 cells; 3T3-L1, treated during the early (days 0–1) or late (days 5–8) stage) was “ineffective; also recorded: lesser effect”, the “quantity of lipid droplets (ORO staining)” value (3T3-L1 cells; 3T3-L1, treated during the intermediate stage (days 1–3)) was “acted specifically in the middle stage; also recorded: significantly reduced” and the remaining binding at 10 µM (LRRK2) was 100%. For the same compound, the remaining binding at 10 µM (INSR) was 94%, the remaining binding at 10 µM (PIK3C2G) was 58% and the remaining binding at 10 µM (SIK2) was 74%. The remaining binding at 10 µM (SRPK1) was 7%, the remaining binding at 10 µM (BIKE) was 3.9% and the remaining binding at 10 µM (AKT3) was 100%. For the same compound, the remaining binding at 10 µM (CDK4-cyclinD1) was 89%, the remaining binding at 10 µM (PIK3CA(C420R)) was 86% and the remaining binding at 10 µM (PAK7) was 100%. For the same compound, the remaining binding at 10 µM (EPHA6) was 90%, the remaining binding at 10 µM (ACVR2B) was 91% and the remaining binding at 10 µM (FLT3(N841I)) was 19%. It also gave a remaining binding at 10 µM (GRK3) of 84%, a remaining binding at 10 µM (EPHB2) of 96% and a remaining binding at 10 µM (CDKL5) of 100%. It also gave a remaining binding at 10 µM (BRAF(V600E)) of 91%, a remaining binding at 10 µM (PIK3CA(E545K)) of 94% and a remaining binding at 10 µM (FLT3(D835H)) of 22%. For the same compound, the remaining binding at 10 µM (PRKG2) was 88% and the remaining binding at 10 µM (DYRK2) was 86%.
